Measured values: article PMC12310023 (PLOS Neglected Tropical Diseases, 2025)
Where two headings read alike, the source gives them in different places. Blank lines part the entries; values can stand above or below the compound they belong to.

Columns and labels:
[1] = molecular target: T1, PPARУ (Homo sapiens, UniProt P37231); assay: Cerep cellular and nuclear receptor functional assay; format: cell-based; conditions: read-out: IC50, antagonist effect
T1 construct: Cerep (Eurofins, France)
T1 sequence (P37231 1-505): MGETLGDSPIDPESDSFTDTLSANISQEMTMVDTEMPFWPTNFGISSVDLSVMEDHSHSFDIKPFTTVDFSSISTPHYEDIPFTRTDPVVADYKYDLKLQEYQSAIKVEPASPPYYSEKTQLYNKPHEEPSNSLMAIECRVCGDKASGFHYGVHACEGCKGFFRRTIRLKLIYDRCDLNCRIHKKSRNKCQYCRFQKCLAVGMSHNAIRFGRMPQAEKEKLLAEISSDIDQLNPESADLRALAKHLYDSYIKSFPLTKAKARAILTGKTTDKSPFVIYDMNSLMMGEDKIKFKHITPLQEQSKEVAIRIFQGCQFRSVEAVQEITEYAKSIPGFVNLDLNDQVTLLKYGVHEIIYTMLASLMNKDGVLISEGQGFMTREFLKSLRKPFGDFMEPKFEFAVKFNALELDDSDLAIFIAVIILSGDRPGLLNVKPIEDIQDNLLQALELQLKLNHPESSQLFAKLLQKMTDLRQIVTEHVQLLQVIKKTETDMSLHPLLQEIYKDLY

[2] = system: C. parvum Bunch Grass Farms isolate; assay: Calibr high-content imaging Cryptosporidium panel; format: cell-based, Cryptosporidium parvum; conditions: Cryptosporidium parvum
[3] = HCT-8 host cell count (Calibr); conditions: human
[4] = system: C. hominis TU502 isolate; assay: Calibr high-content imaging Cryptosporidium panel; format: cell-based, Cryptosporidium hominis; conditions: Cryptosporidium hominis
[5] = system: C. parvum U AZ Laboratory isolate; assay: microbe, parasite or virus in culture; format: cell-based, Cryptosporidium parvum; conditions: Cryptosporidium parvum; for EC50: Calibr Crypto Panel 2, 2018-06-18, read-out: Sterling Lab C. parvum Spot Count EC50; for EC90: Calibr Crypto Panel 2, read-out: Sterling Lab C. parvum Spot Count EC90
[6] = system: NLuc C. parvum (Calibr); assay: Calibr panel, UA Nanoluc C. parvum count; format: cell-based; conditions: Cryptosporidium parvum; for EC50: read-out: UA Nanoluc C. parvum Count EC50; for EC90: read-out: UA Nanoluc C. parvum Count EC90
[7] = 72H HEK293T Cytotoxicity; format: cell-based; conditions: human, HEK293T cells
[8] = system: C. parvum Zambriski Laboratory isolate; assay: Calibr high-content imaging Cryptosporidium panel; format: cell-based, Cryptosporidium parvum; conditions: Cryptosporidium parvum; for EC50: read-out: Wild C. parvum Spot Count EC50; for EC90: read-out: Wild C. parvum Spot Count EC90
[9] = molecular target: T2, 5-HT2B (Homo sapiens, UniProt P41595); assay: Cerep cellular and nuclear receptor functional assay; format: cell-based; conditions: read-out: IC50, antagonist effect
T2 construct: Cerep (Eurofins, France)
T2 sequence (P41595 whole entry): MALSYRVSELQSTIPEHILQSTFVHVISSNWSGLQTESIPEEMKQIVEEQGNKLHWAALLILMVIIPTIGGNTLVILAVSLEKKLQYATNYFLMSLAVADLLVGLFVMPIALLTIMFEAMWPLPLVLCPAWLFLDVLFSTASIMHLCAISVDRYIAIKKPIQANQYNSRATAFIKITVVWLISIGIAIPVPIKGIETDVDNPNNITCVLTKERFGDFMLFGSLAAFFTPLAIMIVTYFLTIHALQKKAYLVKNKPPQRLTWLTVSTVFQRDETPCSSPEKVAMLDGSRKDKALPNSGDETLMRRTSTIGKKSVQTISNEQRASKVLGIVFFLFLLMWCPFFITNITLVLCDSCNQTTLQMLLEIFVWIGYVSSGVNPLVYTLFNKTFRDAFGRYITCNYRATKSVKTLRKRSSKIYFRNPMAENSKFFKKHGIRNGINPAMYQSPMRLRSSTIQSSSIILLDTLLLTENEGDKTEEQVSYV

[10] = read-out: Bunch Grass Farm C. parvum Count EC50, Crypto Panel 3 Replicate 1
[11] = read-out: Bunch Grass Farm C. parvum Count EC50, Crypto Panel 3 Replicate 2
[12] = read-out: Bunch Grass Farm C. parvum Count EC90, Replicate 1
[13] = read-out: Bunch Grass Farm C. parvum Count EC90, Replicate 2
[14] = read-out: Bunch Grass Farm C. parvum Spot Count EC50, Calibr Crypto Panel 2
[15] = read-out: Bunch Grass Farm C. parvum Spot Count EC90, Calibr Crypto Panel 2
[16] = CC50, HCT-8 cells infected with BGF Cp, Replicate 1
[17] = CC50, HCT-8 cells infected with BGF Cp, Replicate 2
[18] = CC50, HCT-8 cells infected with Ch, Replicate 1
[19] = CC50, HCT-8 cells infected with Ch, Replicate 2
[20] = CC50, HCT-8 cells infected with UA Nluc Cp, Replicate 1
[21] = CC50, HCT-8 cells infected with UA Nluc Cp, Replicate 2
[22] = HCT-8 Cell Count CC50, host cells infected with Sterling oocysts
[23] = read-out: C. hominis Spot Count EC50, Calibr Crypto Panel 2, 2018-07-02
[24] = read-out: C. hominis Spot Count EC90, Calibr Crypto Panel 2
[25] = read-out: TU502 C. hominis Count EC50, Replicate 1
[26] = read-out: TU502 C. hominis Count EC50, Replicate 2
[27] = read-out: TU502 C. hominis Count EC90, Replicate 1
[28] = read-out: TU502 C. hominis Count EC90, Replicate 2
[29] = Crypto Panel 3 Replicate 1, read-out: Bunch Grass Farm C. parvum Count EC50
[30] = Crypto Panel 3 Replicate 2, read-out: Bunch Grass Farm C. parvum Count EC50
[31] = Replicate 1, read-out: Bunch Grass Farm C. parvum Count EC90
[32] = Replicate 2, read-out: Bunch Grass Farm C. parvum Count EC90
[33] = Replicate 1, read-out: TU502 C. hominis Count EC50
[34] = Replicate 1, read-out: TU502 C. hominis Count EC90
[35] = Replicate 2, read-out: TU502 C. hominis Count EC50
[36] = Replicate 2, read-out: TU502 C. hominis Count EC90

IC50 [1]: 34 nM
SMILES: O=C(Nc1ccccc1)c1cc([N+](=O)[O-])ccc1Cl [GW 9662, reference compound]

SMILES: O=c1[nH]c(=O)n([C@H]2C[C@H](O)[C@@H](CO)O2)cc1F [5-fluoro-2'-deoxyuridine]
EC50 [2, 10]: 39.7 nM
EC50 [2, 11]: 29 nM
EC90 [2, 12]: 68.8 nM
EC90 [2, 13]: 86 nM
EC50 [2, 14]: 3.1 nM
EC90 [2, 15]: 11.7 nM
CC50 [3, 16]: 192 nM
CC50 [3, 17]: 80.3 nM
CC50 [3, 18]: 71.8 nM
CC50 [3, 19]: 9.05 nM
CC50 [3, 20]: 196 nM
CC50 [3, 21]: 43 nM
CC50 [3, 22]: 79 nM
EC50 [4, 23]: 33.5 nM
EC90 [4, 24]: 679 nM
EC50 [4, 25]: 51.1 nM
EC50 [4, 26]: 29.2 nM
EC90 [4, 27]: 196 nM
EC90 [4, 28]: 222 nM
EC50 [5]: 3.67 nM
EC90 [5]: 9.97 nM
EC50 ([6]; Replicate 1): 43.1 nM
EC90 ([6]; Replicate 1): 158 nM
EC50 ([6]; Replicate 2): 33.1 nM
EC90 ([6]; Replicate 2): 117 nM
CC50 at 72 h [7]: 7.23 nM
EC50 [8]: 5.29 nM
EC90 [8]: 80.4 nM

SMILES: COc1ccc(C[C@H](N)C(=O)N[C@H]2[C@@H](O)[C@H](n3cnc4c(N(C)C)ncnc43)O[C@@H]2CO)cc1 [Puromycin]
EC50 [2, 10]: 403 nM
EC50 [2, 11]: 274 nM
EC90 [2, 12]: 1140 nM
EC90 [2, 13]: 847 nM
EC50 [2, 14]: 177 nM
EC90 [2, 15]: 398 nM
CC50 [3, 16]: 3090 nM
CC50 [3, 17]: 2810 nM
CC50 [3, 18]: 2660 nM
CC50 [3, 19]: 2810 nM
CC50 [3, 20]: 2970 nM
CC50 [3, 21]: 2370 nM
CC50 [3, 22]: 3100 nM
EC50 [4, 23]: 1840 nM
EC90 [4, 24]: 3570 nM
EC50 [4, 25]: 730 nM
EC50 [4, 26]: 504 nM
EC90 [4, 27]: 1900 nM
EC90 [4, 28]: 1500 nM
EC50 [5]: 165 nM
EC90 [5]: 406 nM
EC50 ([6]; Replicate 1): 337 nM
EC90 ([6]; Replicate 1): 1020 nM
EC50 ([6]; Replicate 2): 233 nM
EC90 ([6]; Replicate 2): 1320 nM
CC50 at 72 h [7]: 319 nM
EC50 [8]: 274 nM
EC90 [8]: 1920 nM

SMILES: CC(=O)Oc1ccccc1C(=O)Nc1ncc([N+](=O)[O-])s1 [Nitazoxanide]
EC50 [2, 29]: 11300 nM
EC50 [2, 30]: 6050 nM
EC90 [2, 31]: 19600 nM
EC90 [2, 32]: 12000 nM
EC50 ([2]; Calibr Crypto Panel 2, read-out: Bunch Grass Farm C. parvum Spot Count EC50): 6990 nM
EC90 ([2]; Calibr Crypto Panel 2, read-out: Bunch Grass Farm C. parvum Spot Count EC90): 16800 nM
CC50 [3, 16]: > 30000 nM
CC50 [3, 17]: > 30000 nM
CC50 [3, 18]: > 30000 nM
CC50 [3, 19]: > 30000 nM
CC50 [3, 20]: > 30000 nM
CC50 [3, 21]: > 30000 nM
CC50 [3, 22]: 19900 nM
EC50 ([4]; Calibr Crypto Panel 2, 2018-07-02, read-out: C. hominis Spot Count EC50): 5820 nM
EC90 ([4]; Calibr Crypto Panel 2, read-out: C. hominis Spot Count EC90): 278000 nM
EC50 [4, 33]: 8220 nM
EC90 [4, 34]: 14200 nM
EC50 [4, 35]: 6030 nM
EC90 [4, 36]: 12300 nM
EC50 [5]: 3940 nM
EC90 [5]: 20800 nM
EC50 ([6]; Replicate 1): > 30000 nM
EC90 ([6]; Replicate 1): > 30000 nM
EC50 ([6]; Replicate 2): 4760 nM
EC90 ([6]; Replicate 2): 25000 nM
CC50 at 72 h [7]: 40300 nM
EC50 ([8]; Calibr Crypto Panel 2): 9040 nM
EC90 ([8]; Calibr Crypto Panel 2): 15700 nM

SMILES: CC(C)/N=c1\cc2n(-c3ccc(Cl)cc3)c3ccccc3nc-2cc1Nc1ccc(Cl)cc1 [Clofazimine]
EC50 [2, 29]: 119 nM
EC50 [2, 30]: 678 nM
EC90 [2, 31]: 2710 nM
EC90 [2, 32]: 1170 nM
CC50 [3, 16]: > 25000 nM
CC50 [3, 17]: > 25000 nM
CC50 [3, 18]: > 25000 nM
CC50 [3, 19]: > 25000 nM
CC50 [3, 20]: > 25000 nM
CC50 [3, 21]: > 25000 nM
EC50 [4, 33]: 517 nM
EC90 [4, 34]: 1190 nM
EC50 [4, 35]: 707 nM
EC90 [4, 36]: 1520 nM
EC50 ([6]; Replicate 1): 23.6 nM
EC90 ([6]; Replicate 1): 392 nM
EC50 ([6]; Replicate 2): 67 nM
EC90 ([6]; Replicate 2): 1370 nM

SMILES: Cn1ccc2cc3c(cc21)CCN3C(=O)Nc1cccnc1 [SB 206553, reference compound]
IC50 [9]: 21 nM
